Experimental data reported in paper PMC5599507 (Scientific Reports, 2017).
Where two headings read alike, the source gives them in different places.

Tests used:
[1] = tested on: NR1/2A-transduced HEK293 cells; assay: Cell viability (CellTiterGlo) of NR1/2A-transduced HEK293 cells, protection from excitotoxicity; format: cell-based, human
Protocol: (§1) Cell viability was assessed Cell Titer Glo (Promega) and measured on an Envision plate reader (PerkinElmer).

NR1/NR2A NMDAR = target: T1, NR1/NR2A NMDAR (Homo sapiens, UniProt Q05586+Q12879); assay: NMDAR-mediated calcium flux assay, NR1/NR2A-transduced HEK293 cells; format: cell-based; settings: for glutamate concentration dependence of inhibitor potency: CGP070667-protected cells; for ligand-induced NMDAR-mediated calcium influx after protection with the compound and washout: cells cultured 16 h with compound, washed, stimulated with glycine/glutamate; for EC50: MDL105,519-protected cells after washout, read-out: EC50 of activation of NMDAR-mediated calcium flux; for effect on NMDAR activity at saturating concentrations of ligand: saturating concentrations of both ligands; for potentiation of NMDAR activity at submaximal ligand concentration: submaximal (EC30) D-serine or glutamate
T1 construct: cDNAs for the GRIN1 (NM_007327), GRIN2A (NM_000833.3), GRIN2B (NM_000834.3) and Kir2.1 (NM_000891.2) proteins were purchased from GeneCopoeia; expressed in transfected cells; host or cells: HEK293 cells (ATCC) transduced with BacMam baculovirus (pFastBac-CMV-GW-DEST); virus made in Sf9
T1 sequence (Q12879 23-1464, other chains not shown): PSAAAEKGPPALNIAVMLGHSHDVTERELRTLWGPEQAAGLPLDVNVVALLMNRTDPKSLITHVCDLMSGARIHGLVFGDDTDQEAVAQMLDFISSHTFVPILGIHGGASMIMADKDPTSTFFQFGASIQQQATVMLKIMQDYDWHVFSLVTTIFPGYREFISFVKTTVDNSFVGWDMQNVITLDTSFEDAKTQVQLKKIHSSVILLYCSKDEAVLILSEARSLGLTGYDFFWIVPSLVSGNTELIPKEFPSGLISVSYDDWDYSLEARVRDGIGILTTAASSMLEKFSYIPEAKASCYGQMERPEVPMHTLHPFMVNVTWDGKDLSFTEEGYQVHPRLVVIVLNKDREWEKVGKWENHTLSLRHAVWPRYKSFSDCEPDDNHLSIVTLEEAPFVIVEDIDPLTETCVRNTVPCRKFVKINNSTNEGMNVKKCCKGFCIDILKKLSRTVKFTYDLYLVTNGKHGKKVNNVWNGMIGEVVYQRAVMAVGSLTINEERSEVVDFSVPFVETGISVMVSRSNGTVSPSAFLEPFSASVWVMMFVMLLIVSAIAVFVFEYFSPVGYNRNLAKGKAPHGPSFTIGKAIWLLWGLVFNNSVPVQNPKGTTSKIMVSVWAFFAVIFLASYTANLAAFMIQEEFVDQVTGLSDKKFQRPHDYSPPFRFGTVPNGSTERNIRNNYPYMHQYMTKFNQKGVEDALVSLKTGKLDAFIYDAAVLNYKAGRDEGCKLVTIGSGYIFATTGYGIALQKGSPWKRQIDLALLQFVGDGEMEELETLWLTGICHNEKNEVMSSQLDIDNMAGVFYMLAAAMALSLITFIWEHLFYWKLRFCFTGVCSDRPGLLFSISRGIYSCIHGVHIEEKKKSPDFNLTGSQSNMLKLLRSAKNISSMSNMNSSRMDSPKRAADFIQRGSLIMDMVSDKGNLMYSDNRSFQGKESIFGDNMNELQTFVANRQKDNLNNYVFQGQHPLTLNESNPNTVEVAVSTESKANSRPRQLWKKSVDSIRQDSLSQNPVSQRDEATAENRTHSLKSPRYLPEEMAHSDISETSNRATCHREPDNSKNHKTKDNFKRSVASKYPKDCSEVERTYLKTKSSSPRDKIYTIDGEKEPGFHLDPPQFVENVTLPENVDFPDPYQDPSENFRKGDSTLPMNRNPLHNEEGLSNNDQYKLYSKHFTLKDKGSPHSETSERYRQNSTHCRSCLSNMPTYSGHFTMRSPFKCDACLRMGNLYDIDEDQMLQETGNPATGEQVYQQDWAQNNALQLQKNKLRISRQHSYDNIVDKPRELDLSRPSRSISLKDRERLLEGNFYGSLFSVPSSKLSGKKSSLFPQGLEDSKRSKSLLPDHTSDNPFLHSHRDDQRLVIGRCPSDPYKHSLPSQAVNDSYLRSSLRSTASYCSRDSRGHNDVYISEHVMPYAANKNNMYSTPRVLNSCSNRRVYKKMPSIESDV
Protocol: (§2) 10^4 cells per 384-well were infected with baculovirus in suspension, seeded into a clear bottom, poly-D-lysine treated 384-well plate (Corning) and treated with the indicated concentrations of protection compound (100 µM MDL105,519 or 5 µM CGP070667). 16 h after transduction, cell medium was replaced with calcium6-dye (Molecular Devices, R8192) in incubation buffer (HBSS pH 7.5, 20 mM HEPES, 1 mM MgCl2, 1 mM probenecid) and cells were incubated at 37 °C for 2 h. […] In the beginning of each experiment baseline fluorescence (F0) was measure for 5–30 sec. For compound treatment, 10 µl of a 4× stock of compound diluted in assay buffer was added on the FDSS (speed 20 µl/s, tip height 1.8 mm) fluorescence was measured for 5 min (interval 1) before adding 10 µl of a 5× stock of ligand diluted in assay buffer and measurement of fluorescence for 5 min (interval 2). For single addition experiments, the maximal fluorescence ratio was calculated by dividing the maximal fluorescence in interval 1 by the average baseline fluorescence (Fmax/F0). For experiments requiring two additions, the integral of the fluorescence ratio was determined by calculating the area under the curve of the fluorescent ratios in interval 2. Data was analyzed as indicated and was normalized to controls located on the same plate.

NR1/NR2B NMDAR = target: T2, NR1/NR2B NMDAR (Homo sapiens, UniProt Q05586+Q13224); assay: NMDAR-mediated calcium flux assay, NR1/NR2B-transduced HEK293 cells; format: cell-based
T2 construct: cDNAs for the GRIN1 (NM_007327), GRIN2A (NM_000833.3), GRIN2B (NM_000834.3) and Kir2.1 (NM_000891.2) proteins were purchased from GeneCopoeia; expressed in transfected cells; host or cells: HEK293 cells (ATCC) transduced with BacMam baculovirus (pFastBac-CMV-GW-DEST)
T2 sequence (Q13224 27-1484, other chains not shown): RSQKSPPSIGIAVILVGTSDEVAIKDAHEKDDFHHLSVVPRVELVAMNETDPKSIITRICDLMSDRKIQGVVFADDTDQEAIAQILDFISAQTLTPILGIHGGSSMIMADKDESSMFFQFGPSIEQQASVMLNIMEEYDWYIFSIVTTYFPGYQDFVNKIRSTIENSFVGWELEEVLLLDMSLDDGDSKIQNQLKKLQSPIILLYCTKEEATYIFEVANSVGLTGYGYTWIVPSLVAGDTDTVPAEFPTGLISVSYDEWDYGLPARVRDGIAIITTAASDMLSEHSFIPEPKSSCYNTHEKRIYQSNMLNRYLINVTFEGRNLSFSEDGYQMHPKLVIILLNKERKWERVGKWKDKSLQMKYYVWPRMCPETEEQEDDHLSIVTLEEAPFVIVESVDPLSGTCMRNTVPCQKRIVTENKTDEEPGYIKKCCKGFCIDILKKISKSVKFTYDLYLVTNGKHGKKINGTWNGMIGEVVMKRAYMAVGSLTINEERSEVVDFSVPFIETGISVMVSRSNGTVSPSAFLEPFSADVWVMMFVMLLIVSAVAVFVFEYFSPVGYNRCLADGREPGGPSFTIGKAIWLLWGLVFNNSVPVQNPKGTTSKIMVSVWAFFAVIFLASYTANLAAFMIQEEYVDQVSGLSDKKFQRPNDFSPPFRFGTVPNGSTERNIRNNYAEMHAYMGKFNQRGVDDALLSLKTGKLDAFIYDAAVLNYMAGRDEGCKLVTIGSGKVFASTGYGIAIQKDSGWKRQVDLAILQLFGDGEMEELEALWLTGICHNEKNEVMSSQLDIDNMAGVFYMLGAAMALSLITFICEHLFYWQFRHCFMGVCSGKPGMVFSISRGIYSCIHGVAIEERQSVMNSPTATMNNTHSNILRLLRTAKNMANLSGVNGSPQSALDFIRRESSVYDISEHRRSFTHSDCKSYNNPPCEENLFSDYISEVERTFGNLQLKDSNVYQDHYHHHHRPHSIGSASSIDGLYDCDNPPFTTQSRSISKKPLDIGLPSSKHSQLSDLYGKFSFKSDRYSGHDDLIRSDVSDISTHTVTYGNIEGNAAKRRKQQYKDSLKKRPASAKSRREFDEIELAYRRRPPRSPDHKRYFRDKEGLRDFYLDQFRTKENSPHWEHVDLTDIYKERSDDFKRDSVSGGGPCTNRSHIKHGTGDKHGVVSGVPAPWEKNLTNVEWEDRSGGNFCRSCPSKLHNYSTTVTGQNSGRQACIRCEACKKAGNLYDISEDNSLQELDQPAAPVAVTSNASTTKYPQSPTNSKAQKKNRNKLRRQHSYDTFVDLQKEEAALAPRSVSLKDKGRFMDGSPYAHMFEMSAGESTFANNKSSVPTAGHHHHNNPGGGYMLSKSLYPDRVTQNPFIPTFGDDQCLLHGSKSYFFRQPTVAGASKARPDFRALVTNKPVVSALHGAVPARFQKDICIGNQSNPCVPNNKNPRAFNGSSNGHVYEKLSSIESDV
Protocol: 16 h after transduction, cell medium was replaced with calcium6-dye (Molecular Devices, R8192) in incubation buffer (HBSS pH 7.5, 20 mM HEPES, 1 mM MgCl2, 1 mM probenecid) and cells were incubated at 37 °C for 2 h. Before measurement, the dye-solution was replaced with 30 ul assay buffer (HBSS pH 7.5, 20 mM HEPES, 1.8 mM CaCl2). Cells were allowed to rest for 10 min at room temperature before measuring calcium flux on a FDSS7000 plate reader (Hamamatsu) with the following settings: 1 sec measurement interval, 200 ms exposure time, 2 × 2 binning, Ex480 nm:Em540 nm, sensitivity 1–3. In the beginning of each experiment baseline fluorescence (F0) was measure for 5–30 sec. For compound treatment, 10 µl of a 4× stock of compound diluted in assay buffer was added on the FDSS (speed 20 µl/s, tip height 1.8 mm) fluorescence was measured for 5 min (interval 1) before adding 10 µl of a 5× stock of ligand diluted in assay buffer and measurement of fluorescence for 5 min (interval 2). For single addition experiments, the maximal fluorescence ratio was calculated by dividing the maximal fluorescence in interval 1 by the average baseline fluorescence (Fmax/F0). For experiments requiring two additions, the integral of the fluorescence ratio was determined by calculating the area under the curve of the fluorescent ratios in interval 2. Data was analyzed as indicated and was normalized to controls located on the same plate.

NR1/NR2A-H44A/E226A = assay: NMDAR-mediated calcium flux assay, NR1/NR2A-H44A/E226A mutant in HEK293 cells; settings: at the EC50 of D-serine
Protocol: as §2

HEK293 cells = assay: Cell viability (CellTiterGlo) of HEK293 cells, toxicity of the compound itself; format: cell-based, human; settings: 16 h treatment
Protocol: as §1

NR1/NR2A-V783F = target: T3, NR1/NR2A-V783F (Homo sapiens, UniProt Q05586+Q12879, V783F); assay: NMDAR-mediated calcium flux assay, NR1/NR2A-V783F mutant in HEK293 cells; format: cell-based; settings: MDL105,519-protected cells
T3 construct: cDNAs for the GRIN1 (NM_007327), GRIN2A (NM_000833.3), GRIN2B (NM_000834.3) and Kir2.1 (NM_000891.2) proteins were purchased from GeneCopoeia; expressed in transfected cells; host or cells: HEK293 cells transduced with BacMam baculovirus
T3 sequence (Q12879 23-1464 V783F, other chains not shown): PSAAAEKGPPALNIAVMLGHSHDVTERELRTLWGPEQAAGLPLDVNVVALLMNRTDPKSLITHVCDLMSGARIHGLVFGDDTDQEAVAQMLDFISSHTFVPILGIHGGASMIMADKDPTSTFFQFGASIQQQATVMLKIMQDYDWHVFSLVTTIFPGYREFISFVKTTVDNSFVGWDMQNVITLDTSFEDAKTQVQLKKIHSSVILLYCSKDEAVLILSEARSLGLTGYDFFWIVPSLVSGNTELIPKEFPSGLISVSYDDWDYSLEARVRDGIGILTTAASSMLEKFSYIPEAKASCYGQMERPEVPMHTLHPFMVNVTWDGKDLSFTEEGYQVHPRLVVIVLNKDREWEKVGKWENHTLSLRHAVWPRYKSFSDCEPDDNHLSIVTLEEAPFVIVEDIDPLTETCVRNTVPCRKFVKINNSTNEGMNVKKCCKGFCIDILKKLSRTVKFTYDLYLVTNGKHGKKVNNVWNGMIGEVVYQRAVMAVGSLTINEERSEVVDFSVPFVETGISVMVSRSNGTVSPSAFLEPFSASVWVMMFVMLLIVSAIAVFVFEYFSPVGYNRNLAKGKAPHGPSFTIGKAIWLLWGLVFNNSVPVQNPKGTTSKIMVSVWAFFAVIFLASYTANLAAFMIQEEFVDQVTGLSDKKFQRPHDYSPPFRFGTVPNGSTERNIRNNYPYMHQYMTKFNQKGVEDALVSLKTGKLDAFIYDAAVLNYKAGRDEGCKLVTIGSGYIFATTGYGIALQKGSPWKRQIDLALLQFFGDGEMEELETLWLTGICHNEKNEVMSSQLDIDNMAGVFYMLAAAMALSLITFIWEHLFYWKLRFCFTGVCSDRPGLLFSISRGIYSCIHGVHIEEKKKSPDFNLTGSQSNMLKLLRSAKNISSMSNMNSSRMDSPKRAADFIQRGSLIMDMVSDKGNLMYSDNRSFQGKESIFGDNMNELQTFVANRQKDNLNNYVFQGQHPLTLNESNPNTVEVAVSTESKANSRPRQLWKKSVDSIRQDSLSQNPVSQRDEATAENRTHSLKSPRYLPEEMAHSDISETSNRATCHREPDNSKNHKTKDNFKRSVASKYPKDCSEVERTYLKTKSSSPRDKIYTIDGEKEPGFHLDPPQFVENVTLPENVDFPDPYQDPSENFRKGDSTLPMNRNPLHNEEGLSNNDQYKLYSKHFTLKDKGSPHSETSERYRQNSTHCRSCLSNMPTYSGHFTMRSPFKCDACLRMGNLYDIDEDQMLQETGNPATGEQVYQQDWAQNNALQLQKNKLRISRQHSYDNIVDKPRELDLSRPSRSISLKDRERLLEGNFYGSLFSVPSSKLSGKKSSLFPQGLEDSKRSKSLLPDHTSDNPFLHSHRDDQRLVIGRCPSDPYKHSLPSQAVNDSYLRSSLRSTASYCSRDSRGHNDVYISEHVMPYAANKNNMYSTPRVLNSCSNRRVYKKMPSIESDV
Protocol: 16 h after transduction, cell medium was replaced with calcium6-dye (Molecular Devices, R8192) in incubation buffer (HBSS pH 7.5, 20 mM HEPES, 1 mM MgCl2, 1 mM probenecid) and cells were incubated at 37 °C for 2 h. Before measurement, the dye-solution was replaced with 30 ul assay buffer (HBSS pH 7.5, 20 mM HEPES, 1.8 mM CaCl2). Cells were allowed to rest for 10 min at room temperature before measuring calcium flux on a FDSS7000 plate reader (Hamamatsu) with the following settings: 1 sec measurement interval, 200 ms exposure time, 2 × 2 binning, Ex480 nm:Em540 nm, sensitivity 1–3. In the beginning of each experiment baseline fluorescence (F0) was measure for 5–30 sec. For compound treatment, 10 µl of a 4× stock of compound diluted in assay buffer was added on the FDSS (speed 20 µl/s, tip height 1.8 mm) fluorescence was measured for 5 min (interval 1) before adding 10 µl of a 5× stock of ligand diluted in assay buffer and measurement of fluorescence for 5 min (interval 2). For single addition experiments, the maximal fluorescence ratio was calculated by dividing the maximal fluorescence in interval 1 by the average baseline fluorescence (Fmax/F0). For experiments requiring two additions, the integral of the fluorescence ratio was determined by calculating the area under the curve of the fluorescent ratios in interval 2. […]

[2] = 16 h after transduction with concurrent treatment
[3] = HEK293 cells after protection with MDL105,519, stimulation with EC80 of both ligands, mean, n > 3, n.d. = not detectable, read-out: IC50 NR2A
[4] = HEK293 cells after protection with MDL105,519, stimulation with EC80 of both ligands, mean, n > 3, n.d. = not detectable, read-out: IC50 NR2B

Molecule: O=C(O)C(=Cc1c(C(=O)O)[nH]c2cc(Cl)cc(Cl)c12)c1ccccc1 [MDL105,519]
- protection from NMDAR-mediated excitotoxicity (cell viability) [1, 2]: dose-dependent rescue of cell viability
- cell viability compared to non-transduced cells ([1]; overnight (16 h) treatment of NR1/2A-transduced cells, screen of 120 compounds): > 70%
- glutamate concentration dependence of inhibitor potency (NR1/NR2A NMDAR): only minor effects
- IC50 (NR1/NR2A NMDAR; [3]): 0.62 µM
- shift of inhibitor dose response curve, EC100 vs EC20 of D-serine (NR1/NR2A NMDAR; MDL105,519-protected cells): right shift
- ligand-induced NMDAR-mediated calcium influx after protection with the compound and washout (NR1/NR2A NMDAR): enabled the largest dynamic range of NMDAR-activity
- IC50 (NR1/NR2B NMDAR; [4]): 1.65 µM

Molecule: [Zn+2] [zinc]
- IC50 (NR1/NR2A NMDAR; MDL105,519-protected cells, at the EC50 of D-serine, read-out: IC50 for zinc, wildtype receptor): ~0.1 µM
- IC50 (NR1/NR2A-H44A/E226A; read-out: IC50 for zinc, NR2A-H44A/E226A double mutant, MDL105,519-protected cells): > 10 µM

Molecule: O=c1[nH]c2cc(Cl)ccc2c(O)c1-c1cccc(Oc2ccccc2)c1 [L701,324]
- IC50 (NR1/NR2A NMDAR; [3]): 1.45 µM
- IC50 (NR1/NR2B NMDAR; [4]): 1.91 µM

Molecule: C[C@@H](CN1CCC(Cc2ccccc2)CC1)[C@@H](O)c1ccc(O)cc1 [RO25-6981]
- IC50 (NR1/NR2B NMDAR; [4]): 0.1 µM

Molecule: CNC1(c2ccccc2Cl)CCCCC1=O (stereo not shown) [Ketamine]
- protection from NMDAR-mediated excitotoxicity (cell viability) [1, 2]: could be rescued
- IC50 (NR1/NR2A NMDAR): 23 µM
- ligand-induced NMDAR-mediated calcium influx after protection with the compound and washout (NR1/NR2A NMDAR): did not observe significant ligand-induced NMDAR-mediated calcium influx
- toxic effect on HEK293 cells (HEK293 cells): dose-dependent toxic effect
- IC50 (NR1/NR2B NMDAR): 12.1 µM

Molecule: N[C@H](CO)C(=O)O [D-serine]
- EC50 (NR1/NR2A NMDAR): ~9 µM

Molecule: C[C@]12N[C@H](Cc3ccccc31)c1ccccc12 [MK801]
- protection from NMDAR-mediated excitotoxicity (cell viability) [1, 2]: could be rescued
- glutamate concentration dependence of inhibitor potency (NR1/NR2A NMDAR): only minor effects
- change of signal on NMDAR block in the absence of ligand (basal activity) (NR1/NR2A NMDAR; after washout of MDL105,519, no ligand): only a weak decrease of signal
- ligand-induced NMDAR-mediated calcium influx after protection with the compound and washout (NR1/NR2A NMDAR): did not observe significant ligand-induced NMDAR-mediated calcium influx
- IC50 (NR1/NR2B NMDAR; [4]): 0.15 µM

Molecule: [Cl-].[Cl-].[Mg+2] [MgCl2, magnesium chloride]
- concentration giving partial rescue of cell viability [1, 2]: > 10 mM
- protection from NMDAR-mediated excitotoxicity (cell viability) [1, 2]: partial rescue
- sensitivity of NR1/NR2A to inhibition with increasing Kir2.1 baculovirus titer (NR1/NR2A NMDAR; co-transduction with Kir2.1 (KCNJ2), MDL105,519-protected cells): increased sensitivity

Molecule: O=C(O)CN(CCN(CC(=O)O)CC(=O)O)CC(=O)O [EDTA]
- sensitivity of the double mutant to activation (NR1/NR2A-H44A/E226A; compared to wildtype NR2A): less sensitive

Molecule: N[C@@H](CO)C(=O)O [L-serine]
- right shift in potency as compared to D-serine (NR1/NR2A NMDAR; MDL105,519-protected cells, saturating glutamate): ~ 200 fold

Molecule: NCC(=O)O [glycine]
- sensitivity of NMDAR-mediated calcium flux to ligand (NR1/NR2A NMDAR; CGP070667-protected cells after washout): insensitivity
- EC50 (NR1/NR2A NMDAR): ~12 µM

Molecule: CCN(Cc1cc(=O)n2c3c(sc2n1)CCC3)c1ccc(F)cc1 [GNE-8324]
- effect on NMDAR activity at saturating concentrations of ligand (NR1/NR2A NMDAR): enhanced NMDAR activity
- potentiation of NMDAR activity at submaximal ligand concentration (NR1/NR2A NMDAR): concentration-dependent potentiation
- sensitivity of NR1/2A-V783F to the compound (NR1/NR2A-V783F): complete loss of sensitivity
- effect on NR1/2B-mediated calcium flux (NR1/NR2B NMDAR): no effect

Molecule: C[C@H](NC(c1cccc2[nH]c(=O)c(=O)[nH]c12)P(=O)(O)O)c1ccc(Br)cc1 (stereo partly shown) [NVP-AAM077]
- IC50 (NR1/NR2A NMDAR; [3]): 2.46 µM
- IC50 (NR1/NR2B NMDAR; [4]): 11.9 µM

Molecule: pregnenolone sulfate [PS]
- effect on NMDAR activity at saturating concentrations of ligand (NR1/NR2A NMDAR): supramaximal activation
- potentiation of NMDAR activity at submaximal ligand concentration (NR1/NR2A NMDAR): enhanced NMDAR activity
- effect on NMDAR activity at saturating concentrations of ligand (NR1/NR2B NMDAR; saturating concentrations of both ligands): supramaximal activation
- potentiation of NMDAR activity at submaximal ligand concentration (NR1/NR2B NMDAR; submaximal (EC30) D-serine or glutamate): enhanced NMDAR activity
